Laboratory results published in the supplement of paper PMC4862054.
Where “and” joins values, the source holds several entries; their conditions need not be identical. Identical values can stand only once.

Tests used:
Settings in all cases: incubation time: 72 h
[1] = tested on: DU-4475; assay: normalised viability (% of control), CellTiter-Blue; higher = more viable cells (about 100 = DMSO control)
Description: (§1)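 DSRT, CellTiter-Blue viability, 72 h incubation. Signal is normalised to DMSO and benzethonium chloride controls. Value is the normalised response at dose 7.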

[2] = tested on: CAL-85-1; assay: as above
Description: as §1

[3] = tested on: HDQ-P1; assay: as above
Description: as §1

[4] = tested on: CAL-148; assay: as above
Description: as §1

[5] = tested on: MDA-MB-453; assay: as above
Description: as §1

[6] = tested on: CAL-51; assay: as above
Description: as §1

[7] = tested on: MDA-MB-436; assay: normalised viability (% of control), CellTiter-Blue; higher = more viable cells (about 100 = DMSO control)
Procedure, shortened: (§2)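 Each entry is normalised viability at a single listed concentration within a series. It comes from breast cancer cell lines incubated 72 h with compound in 384-well plates, then measured with CellTiter-Blue fluorescence at 560/590 nm. Every plate was normalised between vehicle (100) and a positive kill control (0).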

[8] = tested on: HCC1937; assay: as above
Procedure, shortened: as §2

[9] = tested on: DU-4475; assay: normalised viability (% of control), CellTiter-Blue; higher = more viable cells (about 100 = DMSO control); remark: listed apart in the source
Description: (§3)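 DSRT, CellTiter-Blue viability, 72 h incubation. Signal is normalised to DMSO and benzethonium chloride controls. Value is the normalised response at dose 9.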

[10] = tested on: CAL-85-1; assay: as above; remark: listed apart in the source
Description: as §3

[11] = tested on: HDQ-P1; assay: as above; remark: listed apart in the source
Description: as §3

[12] = tested on: CAL-148; assay: as above; remark: listed apart in the source
Description: as §3

[13] = tested on: MDA-MB-453; assay: as above; remark: listed apart in the source
Description: as §3

[14] = tested on: CAL-51; assay: as above; remark: listed apart in the source
Description: as §3

[15] = tested on: MDA-MB-468; assay: normalised response (% of control), CellTiter-Glo; higher = more viable cells (100 = DMSO, 0 = benzethonium chloride kill control)
Description: (§4)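 DSRT, 72 h incubation, CellTox Green / CellTiter-Glo readout. Signal is normalised to DMSO and benzethonium chloride controls. Value is the normalised response at the highest dose.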

[16] = tested on: MFM-223; assay: as above
Description: as §4

[17] = tested on: HCC1143; assay: as above
Description: as §4

[18] = tested on: HDQ-P1; assay: as above
Description: as §4

[19] = tested on: HCC1937; assay: as above
Description: as §4

[20] = tested on: HCC1599; assay: as above
Description: as §4

[21] = tested on: CAL-148; assay: as above
Description: as §4

[22] = tested on: BT-474; assay: as above
Description: as §4

[23] = tested on: CAL-51; assay: as above
Description: as §4

[24] = tested on: MDA-MB-231; assay: as above
Description: as §4

SMILES | normalised viability [1] | normalised viability [2] | normalised viability [3] | normalised viability [4] | normalised viability [5] | normalised viability [6] | other results
CCS(=O)(=O)c1cccc(-c2cc(C(=O)NC3CCN(C)CC3)c(C)c3[nH]c4ncc(C)cc4c23)c1 [TAK-901] (100 nM) | 78.5% | 70.4% | 87.2% | 40.3% | 65% | 56.5% | 
COc1cc(Nc2ncc(F)c(Nc3ccc4c(n3)NC(=O)C(C)(C)O4)n2)cc(OC)c1OC [R406] |  |  |  |  |  |  | normalised viability ([7]; 10 nM): 84.3%; normalised viability ([7]; 1000 nM): 102%; normalised viability ([7]; 10000 nM): 101%; normalised viability ([8]; 10 nM): 105%; normalised viability ([8]; 1000 nM): 98.2%; normalised viability ([8]; 10000 nM): 86%
CCOc1cc2ncc(C#N)c(Nc3ccc(OCc4ccccn4)c(Cl)c3)c2cc1NC(=O)/C=C/CN(C)C [Neratinib] (100 nM) | 102% | 94.9% | 120% | 101% | 76% | 92.6% | 
O=c1[nH]cc(F)c(=O)[nH]1 [Fluorouracil] (1000 nM) | 105% | 74.2% | 96.1% | 75.5% | 91.7% | 102% | 
CS(=O)(=O)OCCCCOS(C)(=O)=O [Busulfan] |  |  |  |  |  |  | normalised viability ([7]; 100 nM): 106%; normalised viability ([7]; 10000 nM): 95.2%; normalised viability ([7]; 100000 nM): 82.9%; normalised viability ([8]; 100 nM): 86.4%; normalised viability ([8]; 10000 nM): 83.1%; normalised viability ([8]; 100000 nM): 43.7%
C#Cc1cccc(Nc2ncnc3cc(OC)c(OCCCCCCC(=O)NO)cc23)c1 [CUDC-101] (1000 nM) | 60.9% | 24.9% | 50% | 47% | 19.1% | 97.7% | 
O=C(c1ccc(OCCN2CCCCC2)cc1)c1c(-c2ccc(O)cc2)sc2cc(O)ccc12 [Raloxifene] (1000 nM) | 86.2% | 101% | 81.3% | 112% | 97.1% | 91.5% | 
CN1CCN(c2ccc3nc(-c4c(N)c5c(F)cccc5[nH]c4=O)[nH]c3c2)CC1 [Dovitinib] |  |  |  |  |  |  | normalised viability ([7]; 10 nM): 86.7%; normalised viability ([7]; 1000 nM): 97%; normalised viability ([7]; 10000 nM): 81.1%; normalised viability ([8]; 10 nM): 116%; normalised viability ([8]; 1000 nM): 80.7%; normalised viability ([8]; 10000 nM): 76.9%
O=c1[nH]c(=O)n([C@H]2C[C@H](O)[C@@H](CO)O2)cc1F [Floxuridine] (1000 nM) | 91.6% | 53.1% | 86.5% | 50.6% | 81.9% | 31.9% | 
CCCC(CCC)C(=O)O [Valproic acid] (10000 nM) |  |  |  |  |  |  | normalised viability [9]: 82.9%; normalised viability [10]: 86.8%; normalised viability [11]: 125%; normalised viability [12]: 91.5%; normalised viability [13]: 106%; normalised viability [14]: 91.4%
CC(=O)O[C@H]1C(=O)[C@@]2(C)[C@H]([C@H](OC(=O)c3ccccc3)[C@]3(O)C[C@H](OC(=O)[C@H](O)[C@@H](NC(=O)c4ccccc4)c4ccccc4)C(C)=C1C3(C)C)[C@]1(OC(C)=O)CO[C@@H]1C[C@@H]2O [Paclitaxel] (100 nM) | 27.3% | 31.8% | 33% | 20.8% | 24.8% | 23.4% | 
COc1c(C)cnc(Cn2cnc3c(Cl)nc(N)nc32)c1C [BIIB021] (1000 nM) | 0.09% | 33.4% | 46.8% | 14.6% | 6.04% | 26.1% | 
C[C@@]1(C(=O)Nc2ccc(F)nc2)CCCN1c1nc(Nc2cc(C3CC3)n[nH]2)c2cccn2n1 (1000 nM) | 78.6% | 49.4% | 32.3% | 79.6% | 56.6% | 63.4% | 
CS(=O)(=O)OCCCCOS(C)(=O)=O [Busulfan] (10000 nM) | 103% | 108% | 88.2% | 120% | 104% | 85.6% | 
CS(=O)(=O)CCNCc1ccc(-c2ccc3ncnc(Nc4ccc(OCc5cccc(F)c5)c(Cl)c4)c3c2)o1 [Lapatinib] (1000 nM) | 94.5% and 86.5% | 66.4% and 66.5% |  | 82.4% and 94% | 38% and 36.7% | 105% and 94.6% | normalised response [15]: 83.6%; normalised response [16]: 99.5%; normalised response [17]: 95.4%; normalised response [18]: 69.5%; normalised response [19]: 101%; normalised response [20]: 97.1%; normalised response [21]: 96.3%; normalised response [22]: 96.8%; normalised response [23]: 120%; normalised response [24]: 105%
O=P(O)(NCCCl)NCCCl [Ifosfamide mustard] |  |  |  |  |  |  | normalised viability ([7]; 10 nM): 110%; normalised viability ([7]; 1000 nM): 73.3%; normalised viability ([7]; 10000 nM): 104%; normalised viability ([8]; 10 nM): 72.7%; normalised viability ([8]; 1000 nM): 80.2%; normalised viability ([8]; 10000 nM): 91.5%
COC1=CC(c2cc3ccccc3[nH]2)=N/C1=C\c1[nH]c(C)cc1C [Obatoclax] (1000 nM) | 78.4% | 57.5% | 41.6% | 78.3% | 34% | 72.3% | 
